Measurements from patent US6821980B1, “Substituted 5-benzyl-2,4-diaminopyrimidines” (Basilea Pharmaceutica AG, priority 1999, dated 2004).
Converted amounts (≈) assume the structure as drawn. Where two headings read alike, the source gives them in different places.

What was measured:
[1] = tested on: Staphylococcus aureus 101; assay: MIC against Staphylococcus aureus 101; assay type: cell-based; conditions: Staphylococcus aureus 101, MRSA- and trimethoprim-resistant, clinical isolate; for MIC: read-out: MIC Sa101
[2] = tested on: Streptococcus pneumoniae 1/1; assay: MIC against Streptococcus pneumoniae 1/1; assay type: cell-based; conditions: Streptococcus pneumoniae 1/1, trimethoprim- and penicillin-resistant, serotype 6, clinical isolate; for MIC: read-out: MIC Sp1/1
[3] = target: purified DHFR of strain 157/4696 of Staphylococcus aureus (Staphylococcus aureus, UniProt P13955); assay: biochemical
Chain of purified DHFR of strain 157/4696 of Staphylococcus aureus (P13955 whole entry): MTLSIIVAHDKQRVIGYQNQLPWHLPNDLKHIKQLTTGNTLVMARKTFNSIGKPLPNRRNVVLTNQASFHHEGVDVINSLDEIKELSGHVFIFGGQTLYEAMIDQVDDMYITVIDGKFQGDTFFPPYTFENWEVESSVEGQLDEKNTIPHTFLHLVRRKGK

[4] = target: T1, purified DHFR of strain Sp1/1 of Streptococcus pneumoniae (Streptococcus pneumoniae serotype 4, UniProt Q54801); assay type: biochemical
T1 sequence (Q54801 1-168 I100L): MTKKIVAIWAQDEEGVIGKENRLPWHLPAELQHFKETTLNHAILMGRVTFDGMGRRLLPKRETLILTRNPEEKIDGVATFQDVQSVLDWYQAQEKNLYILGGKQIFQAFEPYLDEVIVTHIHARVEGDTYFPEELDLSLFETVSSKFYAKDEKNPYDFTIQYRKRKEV

[5] = Table 2, IC50 against purified DHFR of strain 157/4696 (highly trimethoprim-resistant; clinical isolate), read-out: DHFR Sa1
[6] = Table 2, IC50 against purified DHFR of strain Sp1/1

Row | Compound | MIC Sa101 ([1]; Table 2) | MIC Sp1/1 ([2]; Table 2) | IC50 [3, 5] | IC50 [4, 6] | MIC ([1]; Table 2) | MIC ([2]; Table 2) | IC50 [3] | MIC ([1]; Table 1) | MIC ([2]; Table 1) | IC50 [4]
1 | 5-[2-Cyclopropylmethyl-6-ethoxy-4′-(2-morpholin-4-yl-ethoxy)-biphenyl-4-ylmethyl]-pyrimidine-2,4-diamine [Example 56-] | 8 µg/mL | 2 µg/mL | 0.8 µM | 0.032 µM |  |  |  |  |  | 
2 | 5-[4′-Amino-2-[(2-tetrahydropyran-4-yl)-ethoxy]-6-ethoxy-4′-methyl-biphenyl-4-ylmethyl]-pyrimidine-2,4-diamine [Example 11-b] | 8 µg/mL | 1 µg/mL | 0.9 µM | 0.0098 µM |  |  |  |  |  | 
3 | CCOc1cc(Cc2cnc(N)nc2N)cc(OCC)c1-c1ccc([S+](C)[O-])cc1 (racemic) [Example 02-j, (RS)-5-(2,6-Diethoxy-4′-methanesulphinyl-biphenyl-4-ylmetyl)-pyrimidine-2,4-diamine] |  |  |  | 0.072 µM | 8 µg/mL (≈ 18.8 µM) | 4 µg/mL (≈ 9.38 µM) | 1.7 µM |  |  | 
4 | CCOc1cc(Cc2cnc(N)nc2N)cc(OCC)c1-c1ccc(N2CC(COC)OC2=O)cc1 (racemic) [Example 04-s, (RS)-3-[4′-(2,4-Diamino-pyrimidin-5-ylmethyl)-2′,6′-diethoxy-biphenyl-4-yl]-5-methoxymethyl-oxazolidin-2-one] |  |  |  | 0.061 µM | 8 µg/mL (≈ 16.2 µM) | 4 µg/mL (≈ 8.1 µM) | 1.9 µM |  |  | 
5 | CCOc1cc(Cc2cnc(N)nc2N)cc(OCCC2CCCCO2)c1-c1cccc(N)c1 (racemic) [Example 07-h, (RS)-5-[3′-Amino-6-ethoxy-2-[2-(tetrahydro-pyran-2-yl)-ethoxy]-biphenyl-4-ylmethyl]-2yrimidine-2,4-diamine] |  |  |  | 0.027 µM | 8 µg/mL (≈ 17.3 µM) | 2 µg/mL (≈ 4.31 µM) | 2.2 µM |  |  | 
6 | CCOc1cc(Cc2cnc(N)nc2N)cc(OCCC2CCCCO2)c1-c1ccc(O)cc1 (racemic) [Example 08-t, (RS)-4′-(2,4-Diamino-pyrimidin-5-ylmethyl)-6′-ethoxy-2′-[2-(tetrahydro-pyran-2-yl)-ethoxy]-biphenyl-4-ol] |  |  |  | 0.025 µM | 8 µg/mL (≈ 17.2 µM) | 2 µg/mL (≈ 4.31 µM) | 2.4 µM |  |  | 
7 | CCOc1cc(Cc2cnc(N)nc2N)cc(O[C@@H]2CCC[C@H]2CC#N)c1-c1ccc(O)cc1 (racemic) [Example 08-u, rac-(E)-{2-[4-(2,4-Diamino-pyrimidin-5-ylmethyl)-6-ethoxy-4′-hydroxy-biphenyl-2-yloxy]-cyclopentyl}-acetonitrile] | 8 µg/mL (≈ 17.4 µM) | 4 µg/mL (≈ 8.7 µM) | 1.8 µM | 0.15 µM |  |  |  |  |  | 
8 | CCOc1cc(Cc2cnc(N)nc2N)cc(OC2CCCC2COC)c1-c1ccc(O)cc1 (racemic) [Example 08-v, rac-(E)-5-[6-Ethoxy-4′-hydroxy-2-(2-methoxymethyl-cyclopentyloxy)-biphenyl-4-ylmethyl]-pyrimidine-2,4-diamine] |  |  |  | 0.082 µM | 8 µg/mL (≈ 17.2 µM) | 2 µg/mL (≈ 4.31 µM) | 1.5 µM |  |  | 
9 | CCOc1cc(Cc2cnc(N)nc2N)cc(O[C@@H]2CCC[C@H]2OC)c1-c1ccc(O)cc1 (relative stereo) [Example 08-y, 5-[6-Ethoxy-2((trans)-2-methoxy-cyclopentyloxy)-4′-hydroxy-biphenyl-4-ylmethtl]-pyrimidine-2,4-diamine] |  |  |  | 0.095 µM | 8 µg/mL (≈ 17.8 µM) | 4 µg/mL (≈ 8.88 µM) | 2.7 µM |  |  | 
10 | CCOc1cc(Cc2cnc(N)nc2N)cc(OCC)c1-n1cccc1 [Epiroprim, reference compound] | 16 µg/mL (≈ 45.3 µM) | 4 µg/mL (≈ 11.3 µM) |  |  |  |  |  | 16 µg/mL (≈ 45.3 µM) | 4 µg/mL (≈ 11.3 µM) | 0.19 µM
11 | CCOc1cc(Cc2cnc(N)nc2N)cc(OCC)c1-c1ccc(OC)c(COC)c1 [Example 02-aa, 5-(2,6-Diethoxy-4′-methoxy-3′-methoxymethyl-biphenyl-4-ylmethyl)-pyrimidine-2,4-diamine] |  |  |  | 0.06 µM | 8 µg/mL (≈ 18.2 µM) | 4 µg/mL (≈ 9.12 µM) | 2.5 µM |  |  | 
12 | CCOc1cc(Cc2cnc(N)nc2N)cc(OCC)c1-c1ccc(CO)s1 [Example 02-ab, [5-[4-(2,4-Diamino-pyrimidin-5-ylmethyl)-2,6-diethoxy-phenyl]-thiophen-2-yl]-methanol] |  |  |  | 0.038 µM | 4 µg/mL (≈ 9.99 µM) | 2 µg/mL (≈ 4.99 µM) | 0.88 µM |  |  | 
13 | CCOc1cc(Cc2cnc(N)nc2N)cc(OCC)c1-c1ccc(CN2CCOCC2)s1 [Example 02-ac, 5-f3,5-Diethoxy-4-(5-morpholin-4-ylmethyl-thiophen-2-yl)-benzyl-pyrimidine-2,4-diamine] |  |  |  | 0.065 µM | 8 µg/mL (≈ 17 µM) | 2 µg/mL (≈ 4.26 µM) | 0.65 µM |  |  | 
14 | CCOc1cc(Cc2cnc(N)nc2N)cc(OCC)c1-c1ccc(C)c(N)c1 [Example 02-ad, 5-(3′-Amino-2,6-diethoxy-4′-methyl-biphenyl-4-ylmethyl)-pyrimidine-2,4-diamine] |  |  |  | 0.085 µM | 8 µg/mL (≈ 20.3 µM) | 4 µg/mL (≈ 10.2 µM) | 2 µM |  |  | 
15 | CCOc1cc(Cc2cnc(N)nc2N)cc(OCC)c1-c1ccc(O)c(F)c1 [Example 02-ae, 4′-(2,4-Diamino-pyrimidin-5-ylmethyl)-2′,6′-diethoxy-3-fluoro-biphenyl-4-ol] |  |  |  | 0.15 µM | 4 µg/mL (≈ 10 µM) | 8 µg/mL (≈ 20.1 µM) | 1.6 µM |  |  | 
16 | CCOc1cc(Cc2cnc(N)nc2N)cc(OCC)c1-c1cccc(S(C)(=O)=O)c1 [Example 02-af, 5-(2,6-Diethoxy-3′-methylsulphonyl-biphenyl-4-ylmethyl)-pyrimidine-2,4-diamine] |  |  |  | 0.085 µM | 8 µg/mL (≈ 18.1 µM) | 8 µg/mL (≈ 18.1 µM) | 1.8 µM |  |  | 
17 | CCOc1cc(Cc2cnc(N)nc2N)cc(OCC)c1-c1ccc(C=O)cc1 [Example 02-ag, 4′-(2,4-Diamino-pyrimidin-5-ylmetyl)-2′,6′-diethoxy-biphenyl-4-carbaldehyde] |  |  |  | 0.13 µM | 8 µg/mL (≈ 20.4 µM) | 8 µg/mL (≈ 20.4 µM) | 2.2 µM |  |  | 
18 | CCOc1cc(Cc2cnc(N)nc2N)cc(OCC)c1-c1ccc2[nH]ccc2c1 [Example 02-d, 5-(3,5-Diethoxy-4-(1H-indol-5-yl)-benzyl)-pyrimidine-2,4-diamine] |  |  |  | 0.035 µM | 8 µg/mL (≈ 19.8 µM) | 1 µg/mL (≈ 2.48 µM) | 1.4 µM |  |  | 
19 | CCOc1cc(Cc2cnc(N)nc2N)cc(OCC)c1-c1ccc2cc[nH]c2c1 [Example 02-e, 5-[3,5-Diethoxy-4-(1H-indol-6-yl)-benzl]-pyrimidine-2,4-diamine] |  |  |  | 0.022 µM | 4 µg/mL (≈ 9.91 µM) | 2 µg/mL (≈ 4.96 µM) | 1 µM |  |  | 
20 | CCOc1cc(Cc2cnc(N)nc2N)cc(OCC)c1-c1ccc2cc(O)ccc2c1 [Example 02-f, 6-[4-(2,4-Diamino-pyrimidin-5-ylmethyl)-2,6-diethoxy-phenyl]-naphthalen-2-ol] |  |  |  | 0.028 µM | 4 µg/mL (≈ 9.29 µM) | 4 µg/mL (≈ 9.29 µM) | 1.7 µM |  |  | 
21 | CCOc1cc(Cc2cnc(N)nc2N)cc(OCC)c1-c1ccc2[nH]ncc2c1 [Example 02-g, 5-[3,5-Diethoxy-4-(1H-indazol-5-yl)-benzyl]-pyrimidine-2,4-diamine] |  |  |  | 0.012 µM | 8 µg/mL (≈ 19.8 µM) | 2 µg/mL (≈ 4.94 µM) | 0.65 µM |  |  | 
22 | CCOc1cc(Cc2cnc(N)nc2N)cc(OCC)c1-c1ccc2c(c1)NCCO2 [Example 02-h, 5-[4-(3,4-Dihydro-2H-benzo[1.4]oxazin-6-yl)-3,5-diethoxy-benzyl]-pyrimidine-2,4-diamine] |  |  |  | 0.038 µM | 8 µg/mL (≈ 19 µM) | 4 µg/mL (≈ 9.49 µM) | 1.2 µM |  |  | 
23 | CCOc1cc(Cc2cnc(N)nc2N)cc(OCC)c1-c1ccc(S(C)(=O)=O)cc1 [Example 02-i, 5-(2,6-Diethoxy-4′-methanesulphonyl-biphenyl-4-ylmethyl)-pyrimidine-2,4-diamine] |  |  |  | 0.1 µM | 8 µg/mL (≈ 18.1 µM) | 2 µg/mL (≈ 4.52 µM) | 1.6 µM |  |  | 
24 | CCOc1cc(Cc2cnc(N)nc2N)cc(OCC)c1-c1ccc(OC)c(OC)c1 [Example 02-l, 5-(2,6-Diethoxy-3′,4′-dimethoxy-biphenyl-4-ylmethy)-pyrimidine-2,4-diamine] |  |  |  | 0.16 µM | 8 µg/mL (≈ 18.8 µM) | 4 µg/mL (≈ 9.42 µM) | 8 µM |  |  | 
25 | CCOc1cc(Cc2cnc(N)nc2N)cc(OCC)c1-c1cccs1 [Example 02-m, 5-(3,5-Diethoxy-4-thiophen-2-yl-benzyl)-pyrimidine-2,4-diamine] |  |  |  | 0.058 µM | 8 µg/mL (≈ 21.6 µM) | 4 µg/mL (≈ 10.8 µM) | 0.7 µM |  |  | 
26 | CCOc1cc(Cc2cnc(N)nc2N)cc(OCC)c1-c1ccc(OC)c(C)c1 [Example 02-n, 5-(2,6-Diethoxy-4′-methoxy-3′-metyl-biphenyl-4-ylmethyl)-pyrimidine-2,4-diamine] |  |  |  | 0.11 µM | 8 µg/mL (≈ 19.6 µM) | 4 µg/mL (≈ 9.79 µM) | 1.4 µM |  |  | 
27 | CCOc1cc(Cc2cnc(N)nc2N)cc(OCC)c1-c1ccc(NC(C)=O)cc1 [Example 04-p, N-[4′-(2,4-Diamino-pyrimidin-5-ylmethl)-2′,6′-diethoxy-biphen-4-yl]-acetamide] | 8 µg/mL (≈ 19 µM) | 2 µg/mL (≈ 4.74 µM) |  |  |  |  |  |  |  | 
28 | CCOc1cc(Cc2cnc(N)nc2N)cc(OCC2(CC#N)CC2)c1-c1ccc(OC)cc1 [Example 09-b] |  |  |  |  | 8 µg/mL (≈ 17.4 µM) | 2 µg/mL (≈ 4.35 µM) | 1.9 µM |  |  | 
29 | COc1cc(Cc2cnc(N)nc2N)cc(OC)c1OC [Trimethoprim, reference compound] | 32 µg/mL (≈ 110 µM) | >32 µg/mL |  |  |  |  |  | 32 µg/mL (≈ 110 µM) | > 32 µg/mL | 
